In brackets after ≈: the same amount, converted by molar mass.
Tests used:
[1] = test system: methicillin-resistant S. aureus (ATCC 43300); test: MIC and MBC, broth dilution, MRSA ATCC 43300; format: cell-based; conditions: Staphylococcus aureus
Experimental: (§1) The synthesized pleuromutilin derivatives 8–30 were tested against four Gram-positive bacteria (MRSA ATCC 43300, S. aureus ATCC 29213 and two clinical strains of S. aureus (AD3 and 144) isolated from Guangdong Province). Tiamulin was used as the positive control in this experiment.
(§2) MIC values were tested following our previous work. The derivatives were dissolved in an aqueous solution of 2.5% tween-80 and 2.5% DMSO to make a solution with a concentration of 1000 µg/mL. The solution was diluted 12 times with MH broth to give a concentration range of 32–0.01 µg/mL. The bacteria (5 × 10^5 CFU/mL) were added in each well. For each compound concentration, three parallel experiments were set. The 96-well plate was incubated for 22–26 h at 37 °C. The MIC value was recorded as the minimal concentration that inhibits the visible growth of tested bacteria completely.
(§3) The MBC of these pleuromutilin derivatives were tested according to a previously reference. […] Then, the values of MBC were determined by laying 100 μL aliquots from the wells onto the MH agar plates without visible growth. The MH agar plate was cultured for a further 22–26 h at 37 °C.

S. aureus (ATCC 29213) = test: MIC and MBC, broth dilution, S. aureus ATCC 29213; format: cell-based; conditions: Staphylococcus aureus, ATCC29213
Experimental: as §1, §2, §3

S. aureus (AD3) = test: MIC and MBC, broth dilution, S. aureus AD3; format: cell-based; conditions: Staphylococcus aureus; S. aureus AD3 (clinical strain)
Experimental: as §1, §2, §3

S. aureus (144) = test: MIC and MBC, broth dilution, S. aureus 144; format: cell-based; conditions: Staphylococcus aureus; S. aureus 144 (clinical strain)
Experimental: as §1, §2, §3

50S ribosome = test: SPR interaction and affinity analysis; format: binding, S. aureus ATCC 43300; conditions: 4 °C; for Avg ka / Avg kd: 1:1 Langmuir binding; for Kd: KD = Kd/Ka
Experimental: S. aureus ATCC 43300 was used to prepare the 50S ribosomal subunit the same way as described previously. Cells were grown overnight in Brain Heart Infusion broth at 37 °C and harvested for 1.5 h at an OD600. Cells were washed with 10 mM Tris-HCl twice at pH = 7.5, and resuspended in 5 mL buffer A (20 mM HEPES-HCl pH = 7.5, 21 mM Mg(OAc)2, 100 mM NH4Cl, 1 mM DTT, 1 mM EDTA). Cells were broken by an ultrasound crusher. The lysate was centrifuged for 90 min at 20,000× g to clear cell debris.
The solution was layered on a sucrose cushion of 15 mL (10 mM Hepes-KOH pH 7.5, 25 mM Mg(OAc)2, 500 mM KCl, […], 1 mM DTT, 0.5 mM EDTA). Centrifugation was carried out for 15 h at 45,000 rpm using an ultracentrifuge Beckman (Beckman Coulter, Shanghai, China), Type 70Ti rotor. The crude ribosome pellet was resuspended in buffer E (10 mM Hepes-KOH pH 7.5, 10 mM Mg(OAc)2, 100 mM KCl, 1 mM DTT, 0.5 mM EDTA), then layered on 9 mL of 7–30% sucrose gradient and centrifuged in an ultracentrifuge Beckman, type SW40Ti rotor at 17,100 rpm for 15 h. The gradient was analyzed on the AKTA explorer system (Amersham, UK). The fractions corresponding to the 50S ribosomal subunit were collected and further subjected to precipitation by PEG 20,000. The 50S ribosomal subunit pellet was gently dissolved in 200 µL of storage buffer (10 mM HEPES-HCl pH = 7.5, 10 mM Mg(OAc)2, 15 mM KCl, 60 mM NH4Cl, 1 mM DTT) and stored at −80 °C.
SPR affinity analysis was performed on the bScreen LB 991 Label-free Microarray System (Berthold Technologies, Black Forest, Germany) at 4 °C and Biodot AD-1520 Array Printer (BIODOT Inc., Irvine, CA, USA) with a Photo-cross-linker SensorCHIP™. Concentrations of each compound were diluted to 100 μM with DMSO as the printing working solution for immobilization. A Biodot AD-1520 Array Printer (BIODOT Inc., CA, USA) was used to control the photo-cross-linker sensor chip and print samples. Each sample was printed four times. In order to check the chip quality and check whether the detection system works, DMSO was used as a system-negative control and rapamycin as a positive control. All positive control dots were divided into four groups and printed on the four corners of the sensor chip. The sensor chip was dried in vacuum after the array print and quickly transferred to a spectra radiator for a photo cross-linking reaction. The sensor chip was washed with C2H5OH, DMF and H2O in turn and evaporated in a N2 atmosphere for 15 min. Then, the Flowcell Cover were assembled.
The 50S ribosome was diluted separately to 200 nM, 400 nM, 800 nM, 1600 nM and 3200 nM with PBST (pH = 7.4, 0.1% Tween 20). Different concentrations of ribosome solutions were injected at a flow rate of 0.5 μL⋅s^−1 for 600 s at the associating stage at 4 °C, followed by PBST at a flow rate of 0.5⋅μL·s^−1 for 360 s at each dissociating stage. Then, the surface was regenerated with Glycine-HCl (pH = 2.0) at a flow rate of 2⋅μL·s^−1 for 300 s.
The raw data of the binding process of compounds and the 50S ribosome were recorded in real time. We compared the response unit (RU) of surface resonance to determine the different binding affinity between each sample dot. The process and analysis of association rate constants (Ka) and dissociation rate constants (Kd) and the equilibrium dissociation constant (KD, Kd/Ka) were performed using the data analysis software of the bScreen LB 991 Label-free Microarray System according to a single-site binding model (1:1 Langmuir binding) with mass transfer limitations for binding kinetics determination.

Compound | MBC [1] | MIC [1] | MBC (S. aureus (ATCC 29213)) | MIC (S. aureus (ATCC 29213)) | MBC (S. aureus (AD3)) | MIC (S. aureus (AD3)) | MBC (S. aureus (144)) | MIC (S. aureus (144)) | Avg ka (50S ribosome) | Avg kd (50S ribosome) | Kd (50S ribosome) | melting point
C=C[C@]1(C)C[C@@H](OC(=O)CNCCCCCCCC)[C@]2(C)[C@H](C)CC[C@]3(CCC(=O)[C@H]32)[C@@H](C)[C@@H]1O [Compound 22, 22-Octylamineyl-22-deoxypleuromutilin] | 32 µg/mL (≈ 65.3 µM) | 16 µg/mL (≈ 32.7 µM) | > 32 µg/mL | 16 µg/mL (≈ 32.7 µM) | > 32 µg/mL | 32 µg/mL (≈ 65.3 µM) | > 32 µg/mL | 32 µg/mL (≈ 65.3 µM) | 114 M⁻¹ s⁻¹ | 0.00073 s⁻¹ | 6.41 µM | 76 to 77 °C
C=C[C@]1(C)C[C@@H](OC(=O)CNCc2cccc(F)c2)[C@]2(C)[C@H](C)CC[C@]3(CCC(=O)[C@H]32)[C@@H](C)[C@@H]1O [Compound 15, 22-(3-Fluorobenzylamineyl)-22-deoxypleuromutilin] | 2 µg/mL (≈ 4.12 µM) | 1 µg/mL (≈ 2.06 µM) | 8 µg/mL (≈ 16.5 µM) | 4 µg/mL (≈ 8.24 µM) | 8 µg/mL (≈ 16.5 µM) | 2 µg/mL (≈ 4.12 µM) | 16 µg/mL (≈ 32.9 µM) | 8 µg/mL (≈ 16.5 µM) | 1960 M⁻¹ s⁻¹ | 0.00432 s⁻¹ | 2.21 µM | 143 to 144 °C
penicillin [reference compound] | – | – | – | – | – | – | – | – | 2.10 M⁻¹ s⁻¹ | 0.515 s⁻¹ | – | –
C=C[C@]1(C)C[C@@H](OC(=O)CNCCO)[C@]2(C)[C@H](C)CC[C@]3(CCC(=O)[C@H]32)[C@@H](C)[C@@H]1O [Compound 28, 22-Ethanolamine-22-deoxypleuromutilin] | 2 µg/mL (≈ 4.74 µM) | 1 µg/mL (≈ 2.37 µM) | 8 µg/mL (≈ 19 µM) | 2 µg/mL (≈ 4.74 µM) | 8 µg/mL (≈ 19 µM) | 2 µg/mL (≈ 4.74 µM) | 4 µg/mL (≈ 9.49 µM) | 4 µg/mL (≈ 9.49 µM) | 2730 M⁻¹ s⁻¹ | 0.0272 s⁻¹ | 9.96 µM | 91 to 94 °C
C=C[C@]1(C)C[C@@H](OC(=O)CNc2cccc(Cl)c2)[C@]2(C)[C@H](C)CC[C@]3(CCC(=O)[C@H]32)[C@@H](C)[C@@H]1O [Compound 10, 22-(3-Chloroanilineyl)-22-deoxypleuromutilin] | 0.12 µg/mL (≈ 0.246 µM) | 0.12 µg/mL (≈ 0.246 µM) | 0.25 µg/mL (≈ 0.512 µM) | 0.12 µg/mL (≈ 0.246 µM) | 0.5 µg/mL (≈ 1.02 µM) | 0.125 µg/mL (≈ 0.256 µM) | 0.5 µg/mL (≈ 1.02 µM) | 0.25 µg/mL (≈ 0.512 µM) | – | 0.00224 s⁻¹ | 26 µM | 158 to 160 °C
C=C[C@]1(C)C[C@@H](OC(=O)CNCCS(C)(=O)=O)[C@]2(C)[C@H](C)CC[C@]3(CCC(=O)[C@H]32)[C@@H](C)[C@@H]1O [Compound 25, 22-(2-(Methylsulfonyl)ethylamineyl)-22-deoxypleuromutilin] | 2 µg/mL (≈ 4.14 µM) | 1 µg/mL (≈ 2.07 µM) | 2 µg/mL (≈ 4.14 µM) | 2 µg/mL (≈ 4.14 µM) | 4 µg/mL (≈ 8.27 µM) | 2 µg/mL (≈ 4.14 µM) | 8 µg/mL (≈ 16.5 µM) | 4 µg/mL (≈ 8.27 µM) | 2.70 M⁻¹ s⁻¹ | 0.00833 s⁻¹ | 3080 µM | 183 to 186 °C
C=C[C@]1(C)C[C@@H](OC(=O)CNC23CC4CC(CC(C4)C2)C3)[C@]2(C)[C@H](C)CC[C@]3(CCC(=O)[C@H]32)[C@@H](C)[C@@H]1O [Compound 27, 22-Amantadineyl-22-deoxypleuromutilin] | 0.25 µg/mL (≈ 0.489 µM) | 0.25 µg/mL (≈ 0.489 µM) | 1 µg/mL (≈ 1.95 µM) | 0.5 µg/mL (≈ 0.977 µM) | 4 µg/mL (≈ 7.82 µM) | 2 µg/mL (≈ 3.91 µM) | 8 µg/mL (≈ 15.6 µM) | 4 µg/mL (≈ 7.82 µM) | 7.36 M⁻¹ s⁻¹ | 0.0215 s⁻¹ | 2920 µM | 105 to 109 °C
C=C[C@]1(C)C[C@@H](OC(=O)CNCc2ccc(F)cc2)[C@]2(C)[C@H](C)CC[C@]3(CCC(=O)[C@H]32)[C@@H](C)[C@@H]1O [Compound 16, 22-(4-Fluorobenzylamineyl)-22-deoxypleuromutilin] | 8 µg/mL (≈ 16.5 µM) | 4 µg/mL (≈ 8.24 µM) | 32 µg/mL (≈ 65.9 µM) | 16 µg/mL (≈ 32.9 µM) | 16 µg/mL (≈ 32.9 µM) | 8 µg/mL (≈ 16.5 µM) | 32 µg/mL (≈ 65.9 µM) | 16 µg/mL (≈ 32.9 µM) | 2.04 M⁻¹ s⁻¹ | 0.00929 s⁻¹ | 4560 µM | 76 to 77 °C
C=C[C@]1(C)C[C@@H](OC(=O)CNc2cccc(F)c2)[C@]2(C)[C@H](C)CC[C@]3(CCC(=O)[C@H]32)[C@@H](C)[C@@H]1O [Compound 8] | 0.12 µg/mL (≈ 0.254 µM) | 0.03 µg/mL (≈ 0.0636 µM) | 0.25 µg/mL (≈ 0.53 µM) | 0.12 µg/mL (≈ 0.254 µM) | 0.5 µg/mL (≈ 1.06 µM) | 0.12 µg/mL (≈ 0.254 µM) | 0.5 µg/mL (≈ 1.06 µM) | 0.25 µg/mL (≈ 0.53 µM) | – | – | – | –
C=C[C@]1(C)C[C@@H](OC(=O)CNCCc2cccs2)[C@]2(C)[C@H](C)CC[C@]3(CCC(=O)[C@H]32)[C@@H](C)[C@@H]1O [Compound 20, 22-(Thiophene-2-ethylamineyl)-22-deoxypleuromutilin] | 1 µg/mL (≈ 2.05 µM) | 0.5 µg/mL (≈ 1.03 µM) | 2 µg/mL (≈ 4.1 µM) | 2 µg/mL (≈ 4.1 µM) | 16 µg/mL (≈ 32.8 µM) | 4 µg/mL (≈ 8.2 µM) | 4 µg/mL (≈ 8.2 µM) | 2 µg/mL (≈ 4.1 µM) | 624 M⁻¹ s⁻¹ | 0.0197 s⁻¹ | 31.6 µM | 69 to 70 °C
C=C[C@]1(C)C[C@@H](OC(=O)CNCCCC)[C@]2(C)[C@H](C)CC[C@]3(CCC(=O)[C@H]32)[C@@H](C)[C@@H]1O [Compound 21, 22-Butylamineyl-22-deoxypleuromutilin] | 4 µg/mL (≈ 9.22 µM) | 2 µg/mL (≈ 4.61 µM) | 4 µg/mL (≈ 9.22 µM) | 4 µg/mL (≈ 9.22 µM) | 8 µg/mL (≈ 18.4 µM) | 4 µg/mL (≈ 9.22 µM) | 8 µg/mL (≈ 18.4 µM) | 8 µg/mL (≈ 18.4 µM) | 4.24 M⁻¹ s⁻¹ | 0.0231 s⁻¹ | 5440 µM | 74 to 75 °C
C=C[C@]1(C)C[C@@H](OC(=O)CN2CCSCC2)[C@]2(C)[C@H](C)CC[C@]3(CCC(=O)[C@H]32)[C@@H](C)[C@@H]1O [Compound 30, 22-Thiomorpholine-22-deoxypleuromutilin] | 2 µg/mL (≈ 4.31 µM) | 1 µg/mL (≈ 2.16 µM) | 2 µg/mL (≈ 4.31 µM) | 1 µg/mL (≈ 2.16 µM) | 4 µg/mL (≈ 8.63 µM) | 1 µg/mL (≈ 2.16 µM) | 4 µg/mL (≈ 8.63 µM) | 2 µg/mL (≈ 4.31 µM) | – | 0.00021 s⁻¹ | 7.77 µM | 82 to 83 °C

— paper PMC8838415, “Discovery of Novel Pleuromutilin Derivatives as Potent Antibacterial Agents for the Treatment of MRSA Infection” (Molecules, 2022)
